# Data reported in article PMC8766756, “Insights on Cancer Cell Inhibition, Subcellular Activities, and Kinase Profile of Phenylacetamides Pending 1H-Imidazol-5-One Variants” (Frontiers in Pharmacology, 2022).
# Values joined by “and” are separate entries in the source; they are usually repeats but may differ in a detail not shown here. Equal values may be shown once.
# Legend:
# Experiment in all cases: PamChip tyrosine kinase microarray
# Type in all cases: biochemical
# Conditions in all cases: 0.1 µM, HL60 lysate
# HER2 (P04626) = biological target: T1, HER2 (P04626) (Homo sapiens, UniProt P04626)
# T1 construct: purchased PamGene (PamChip PTK array, Upstream Kinase Analysis)
# T1 sequence (P04626 23-1255): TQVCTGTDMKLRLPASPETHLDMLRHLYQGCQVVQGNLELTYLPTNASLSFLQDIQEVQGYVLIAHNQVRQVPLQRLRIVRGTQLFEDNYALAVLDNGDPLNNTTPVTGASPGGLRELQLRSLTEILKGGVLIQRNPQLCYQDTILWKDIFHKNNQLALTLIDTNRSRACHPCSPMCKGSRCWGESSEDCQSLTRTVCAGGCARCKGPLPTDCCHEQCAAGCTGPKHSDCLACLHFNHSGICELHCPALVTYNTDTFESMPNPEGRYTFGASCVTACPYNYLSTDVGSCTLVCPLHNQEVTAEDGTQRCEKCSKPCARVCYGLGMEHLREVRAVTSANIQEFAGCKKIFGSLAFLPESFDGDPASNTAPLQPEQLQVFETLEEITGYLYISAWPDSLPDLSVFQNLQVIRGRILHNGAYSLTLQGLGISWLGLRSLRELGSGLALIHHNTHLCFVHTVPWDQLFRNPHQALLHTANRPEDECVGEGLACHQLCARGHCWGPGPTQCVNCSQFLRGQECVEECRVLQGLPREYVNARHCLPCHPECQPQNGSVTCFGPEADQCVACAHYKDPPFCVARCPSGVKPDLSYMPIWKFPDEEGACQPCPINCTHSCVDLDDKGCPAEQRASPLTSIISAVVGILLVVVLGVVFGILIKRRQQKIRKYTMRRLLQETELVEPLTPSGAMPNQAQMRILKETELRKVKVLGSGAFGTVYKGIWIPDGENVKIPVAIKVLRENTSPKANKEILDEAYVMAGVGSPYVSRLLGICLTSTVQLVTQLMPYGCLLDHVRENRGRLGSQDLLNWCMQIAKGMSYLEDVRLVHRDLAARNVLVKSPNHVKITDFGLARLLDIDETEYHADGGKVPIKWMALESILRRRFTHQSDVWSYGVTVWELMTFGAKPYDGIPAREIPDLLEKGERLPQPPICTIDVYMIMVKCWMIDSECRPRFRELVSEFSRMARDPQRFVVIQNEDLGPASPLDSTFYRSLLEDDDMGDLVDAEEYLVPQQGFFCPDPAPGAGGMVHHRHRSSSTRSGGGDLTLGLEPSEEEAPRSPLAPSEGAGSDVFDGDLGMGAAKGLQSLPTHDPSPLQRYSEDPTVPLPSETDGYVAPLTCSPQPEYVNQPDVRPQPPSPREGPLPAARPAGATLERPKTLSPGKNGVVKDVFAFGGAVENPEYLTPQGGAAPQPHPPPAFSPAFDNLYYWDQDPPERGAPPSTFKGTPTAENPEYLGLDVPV
# Method in brief: (§1)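 HL60 (AML) cell lysate was spiked with compound at 0.001, 0.01, 0.1, 1, 10 and 50 µM, or 2% v/v DMSO as control, then profiled in technical replicates on a tyrosine kinase peptide array of 196 phosphosites. Kinase activity was inferred from peptide-set changes using an upstream kinase tool.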
# KDR (P35968) = biological target: T2, KDR (P35968) (Homo sapiens, UniProt P35968)
# T2 construct: purchased PamGene (PamChip PTK array, Upstream Kinase Analysis)
# T2 sequence (P35968 20-1356): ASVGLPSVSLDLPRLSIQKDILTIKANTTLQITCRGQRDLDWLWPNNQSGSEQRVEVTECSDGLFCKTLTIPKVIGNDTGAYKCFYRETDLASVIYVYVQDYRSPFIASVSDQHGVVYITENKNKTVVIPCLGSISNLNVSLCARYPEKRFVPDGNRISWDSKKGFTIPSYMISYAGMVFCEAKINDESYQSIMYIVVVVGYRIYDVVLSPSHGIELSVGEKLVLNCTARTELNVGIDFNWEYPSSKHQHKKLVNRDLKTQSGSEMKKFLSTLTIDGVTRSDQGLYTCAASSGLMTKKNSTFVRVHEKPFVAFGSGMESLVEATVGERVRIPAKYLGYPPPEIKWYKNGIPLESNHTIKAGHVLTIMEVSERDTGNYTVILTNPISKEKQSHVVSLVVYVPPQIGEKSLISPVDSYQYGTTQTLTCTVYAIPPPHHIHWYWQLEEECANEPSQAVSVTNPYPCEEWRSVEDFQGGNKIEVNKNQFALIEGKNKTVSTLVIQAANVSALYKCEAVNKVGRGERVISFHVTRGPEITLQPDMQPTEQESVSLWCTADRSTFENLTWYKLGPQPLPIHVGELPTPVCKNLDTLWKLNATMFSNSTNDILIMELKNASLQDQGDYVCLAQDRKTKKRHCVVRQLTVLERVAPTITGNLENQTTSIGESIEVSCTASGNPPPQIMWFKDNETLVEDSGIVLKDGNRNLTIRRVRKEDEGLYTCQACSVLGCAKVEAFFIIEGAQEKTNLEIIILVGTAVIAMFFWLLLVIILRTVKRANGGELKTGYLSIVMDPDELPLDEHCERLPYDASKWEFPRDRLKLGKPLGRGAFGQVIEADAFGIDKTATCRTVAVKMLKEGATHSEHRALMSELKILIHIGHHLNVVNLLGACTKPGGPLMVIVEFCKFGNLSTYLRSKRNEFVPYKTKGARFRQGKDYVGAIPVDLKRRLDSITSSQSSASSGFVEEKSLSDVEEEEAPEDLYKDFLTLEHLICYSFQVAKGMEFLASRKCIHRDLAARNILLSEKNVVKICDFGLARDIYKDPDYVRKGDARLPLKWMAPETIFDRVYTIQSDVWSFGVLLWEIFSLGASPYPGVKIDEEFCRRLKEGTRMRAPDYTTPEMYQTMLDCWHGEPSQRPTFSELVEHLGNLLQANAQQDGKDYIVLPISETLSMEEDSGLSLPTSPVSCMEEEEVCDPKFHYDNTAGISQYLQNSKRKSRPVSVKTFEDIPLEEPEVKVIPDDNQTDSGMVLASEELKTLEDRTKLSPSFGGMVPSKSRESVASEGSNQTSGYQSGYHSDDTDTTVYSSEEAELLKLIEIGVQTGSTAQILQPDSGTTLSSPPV
# Method in brief: as §1
# Etk/BMX (P51813) = biological target: T3, Etk/BMX (P51813) (Homo sapiens, UniProt P51813)
# T3 construct: purchased PamGene (PamChip PTK array, Upstream Kinase Analysis)
# T3 sequence (P51813 1-675): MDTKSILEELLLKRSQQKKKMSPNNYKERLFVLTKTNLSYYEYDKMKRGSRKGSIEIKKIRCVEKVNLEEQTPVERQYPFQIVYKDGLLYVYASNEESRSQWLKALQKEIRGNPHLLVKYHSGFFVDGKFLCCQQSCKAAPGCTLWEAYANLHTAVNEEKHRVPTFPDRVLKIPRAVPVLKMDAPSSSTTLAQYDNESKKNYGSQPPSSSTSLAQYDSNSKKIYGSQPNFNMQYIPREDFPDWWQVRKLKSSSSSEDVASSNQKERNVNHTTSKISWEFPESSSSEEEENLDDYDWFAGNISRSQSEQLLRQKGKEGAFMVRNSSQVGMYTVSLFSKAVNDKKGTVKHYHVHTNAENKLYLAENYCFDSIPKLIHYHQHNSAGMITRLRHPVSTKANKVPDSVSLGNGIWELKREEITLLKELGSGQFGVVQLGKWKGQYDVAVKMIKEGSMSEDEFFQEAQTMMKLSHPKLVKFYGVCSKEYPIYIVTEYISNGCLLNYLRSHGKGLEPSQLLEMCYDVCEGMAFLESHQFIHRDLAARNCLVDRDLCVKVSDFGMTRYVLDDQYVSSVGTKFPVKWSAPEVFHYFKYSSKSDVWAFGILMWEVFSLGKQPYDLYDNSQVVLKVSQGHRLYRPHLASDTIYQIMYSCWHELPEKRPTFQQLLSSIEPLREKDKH
# Method in brief: as §1
# FmS/CSFR (P07333) = biological target: T4, FmS/CSFR (P07333) (Homo sapiens, UniProt P07333)
# T4 construct: purchased PamGene (PamChip PTK array, Upstream Kinase Analysis)
# T4 sequence (P07333 20-972, one chain of several): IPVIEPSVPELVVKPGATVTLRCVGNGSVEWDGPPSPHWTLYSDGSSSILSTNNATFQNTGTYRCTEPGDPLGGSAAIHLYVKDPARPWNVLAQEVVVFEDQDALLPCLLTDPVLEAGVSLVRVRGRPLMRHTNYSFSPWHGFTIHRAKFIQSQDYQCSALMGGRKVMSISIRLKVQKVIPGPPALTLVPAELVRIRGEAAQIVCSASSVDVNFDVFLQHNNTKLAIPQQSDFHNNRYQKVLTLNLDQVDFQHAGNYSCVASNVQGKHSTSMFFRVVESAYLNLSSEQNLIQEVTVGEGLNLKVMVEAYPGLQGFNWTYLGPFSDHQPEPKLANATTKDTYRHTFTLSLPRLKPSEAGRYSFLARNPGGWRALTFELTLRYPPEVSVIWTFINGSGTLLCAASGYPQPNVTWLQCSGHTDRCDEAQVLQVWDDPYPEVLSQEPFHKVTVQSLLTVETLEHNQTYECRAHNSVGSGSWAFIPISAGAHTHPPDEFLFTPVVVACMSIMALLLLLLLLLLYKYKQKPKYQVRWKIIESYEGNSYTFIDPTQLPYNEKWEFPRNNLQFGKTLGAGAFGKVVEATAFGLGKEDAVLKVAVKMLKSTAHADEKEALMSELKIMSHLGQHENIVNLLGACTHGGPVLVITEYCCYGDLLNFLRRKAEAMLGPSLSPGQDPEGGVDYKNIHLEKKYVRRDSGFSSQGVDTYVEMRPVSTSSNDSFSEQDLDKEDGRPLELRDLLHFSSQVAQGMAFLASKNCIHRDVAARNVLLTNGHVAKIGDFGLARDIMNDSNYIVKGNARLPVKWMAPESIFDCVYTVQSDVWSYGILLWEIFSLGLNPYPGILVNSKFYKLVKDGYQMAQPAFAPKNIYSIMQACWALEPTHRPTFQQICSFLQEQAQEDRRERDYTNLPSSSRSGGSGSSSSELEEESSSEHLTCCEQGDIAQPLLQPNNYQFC
# Method in brief: as §1
# Ros (P08922) = biological target: T5, Ros (P08922) (Homo sapiens, UniProt P08922)
# T5 construct: purchased PamGene (PamChip PTK array, Upstream Kinase Analysis)
# Method in brief: as §1
# IRR (P14616) = biological target: T6, IRR (P14616) (Homo sapiens, UniProt P14616)
# T6 construct: purchased PamGene (PamChip PTK array, Upstream Kinase Analysis)
# Method in brief: as §1
# TRKA (P04629) = biological target: T7, TRKA (P04629) (Homo sapiens, UniProt P04629)
# T7 construct: purchased PamGene (PamChip PTK array, Upstream Kinase Analysis)
# T7 sequence (P04629 33-796): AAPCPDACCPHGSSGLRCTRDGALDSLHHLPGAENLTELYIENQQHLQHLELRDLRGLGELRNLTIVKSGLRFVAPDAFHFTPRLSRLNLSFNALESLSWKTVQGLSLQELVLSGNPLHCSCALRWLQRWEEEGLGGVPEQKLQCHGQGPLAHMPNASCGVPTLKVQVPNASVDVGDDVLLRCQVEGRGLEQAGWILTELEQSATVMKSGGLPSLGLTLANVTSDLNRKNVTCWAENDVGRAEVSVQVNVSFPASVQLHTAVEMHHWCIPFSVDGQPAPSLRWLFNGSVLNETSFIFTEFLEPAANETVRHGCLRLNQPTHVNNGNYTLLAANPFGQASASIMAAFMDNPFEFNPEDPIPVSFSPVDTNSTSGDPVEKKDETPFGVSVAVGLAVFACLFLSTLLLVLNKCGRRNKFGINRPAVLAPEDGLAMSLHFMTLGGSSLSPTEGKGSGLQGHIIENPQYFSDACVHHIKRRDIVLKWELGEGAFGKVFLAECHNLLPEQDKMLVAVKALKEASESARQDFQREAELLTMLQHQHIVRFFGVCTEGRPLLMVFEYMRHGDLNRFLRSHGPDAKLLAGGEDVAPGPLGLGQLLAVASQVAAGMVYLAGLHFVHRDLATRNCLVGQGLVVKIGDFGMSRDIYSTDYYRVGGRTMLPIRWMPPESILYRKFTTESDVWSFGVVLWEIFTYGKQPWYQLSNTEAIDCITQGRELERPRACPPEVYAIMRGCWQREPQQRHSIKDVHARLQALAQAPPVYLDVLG
# Method in brief: as §1
compound,measurement,setting,value
"COc1ccc(/C=C2\N=C(C)N(c3ccc(CC(=O)NCc4ccccc4)cc3)C2=O)cc1 [Compound 4c, (Z)-N-Benzyl-2-(4-(4-(4-methoxybenzylidene)-2-methyl-5-oxo-4,5-dihydro-1H-imidazol-1-yl)phenyl)acetamide]",Mean Final score (Kinase score),HER2 (P04626),2.103
same,Mean Kinase Statistic,HER2 (P04626),-1.031
same,Mean Significance Score,HER2 (P04626),1.88
same,Mean Specificity Score,HER2 (P04626),0.08906
same,Mean Final score (Kinase score),KDR (P35968),2.535
same,Mean Kinase Statistic,KDR (P35968),-1.256
same,Mean Significance Score,KDR (P35968),2.048
same,Mean Specificity Score,KDR (P35968),0.5472
same,Mean Final score (Kinase score),Etk/BMX (P51813),2.196
same,Mean Kinase Statistic,Etk/BMX (P51813),-1.111
same,Mean Significance Score,Etk/BMX (P51813),2.048
same,Mean Specificity Score,Etk/BMX (P51813),0.1452
same,Mean Final score (Kinase score),FmS/CSFR (P07333),2.549
same,Mean Kinase Statistic,FmS/CSFR (P07333),-1.225
same,Mean Significance Score,FmS/CSFR (P07333),2.048
same,Mean Specificity Score,FmS/CSFR (P07333),0.582
same,Mean Significance Score,Ros (P08922),1.955
same,Mean Specificity Score,Ros (P08922),0.9862
same,Mean Final score (Kinase score),Ros (P08922); listed as KIM-161,2.90 and 2.9031
same,Mean Final score (Kinase score),IRR (P14616),2.412
same,Mean Kinase Statistic,IRR (P14616),-1.1771
same,Mean Significance Score,IRR (P14616),2.053
same,Mean Specificity Score,IRR (P14616),0.3184
same,Mean Final score (Kinase score),TRKA (P04629),2.339
same,Mean Kinase Statistic,TRKA (P04629),-1.138
same,Mean Significance Score,TRKA (P04629),2.048
same,Mean Specificity Score,TRKA (P04629),0.2694
